Common to all, as to format: cell-based
Common to all, as to details: HEK-293T

The target in assay [1] is T1, Nucleotide-binding oligomerization domain-containing protein 1 (Homo sapiens) (UniProt Q9Y239).
T1 sequence (whole entry): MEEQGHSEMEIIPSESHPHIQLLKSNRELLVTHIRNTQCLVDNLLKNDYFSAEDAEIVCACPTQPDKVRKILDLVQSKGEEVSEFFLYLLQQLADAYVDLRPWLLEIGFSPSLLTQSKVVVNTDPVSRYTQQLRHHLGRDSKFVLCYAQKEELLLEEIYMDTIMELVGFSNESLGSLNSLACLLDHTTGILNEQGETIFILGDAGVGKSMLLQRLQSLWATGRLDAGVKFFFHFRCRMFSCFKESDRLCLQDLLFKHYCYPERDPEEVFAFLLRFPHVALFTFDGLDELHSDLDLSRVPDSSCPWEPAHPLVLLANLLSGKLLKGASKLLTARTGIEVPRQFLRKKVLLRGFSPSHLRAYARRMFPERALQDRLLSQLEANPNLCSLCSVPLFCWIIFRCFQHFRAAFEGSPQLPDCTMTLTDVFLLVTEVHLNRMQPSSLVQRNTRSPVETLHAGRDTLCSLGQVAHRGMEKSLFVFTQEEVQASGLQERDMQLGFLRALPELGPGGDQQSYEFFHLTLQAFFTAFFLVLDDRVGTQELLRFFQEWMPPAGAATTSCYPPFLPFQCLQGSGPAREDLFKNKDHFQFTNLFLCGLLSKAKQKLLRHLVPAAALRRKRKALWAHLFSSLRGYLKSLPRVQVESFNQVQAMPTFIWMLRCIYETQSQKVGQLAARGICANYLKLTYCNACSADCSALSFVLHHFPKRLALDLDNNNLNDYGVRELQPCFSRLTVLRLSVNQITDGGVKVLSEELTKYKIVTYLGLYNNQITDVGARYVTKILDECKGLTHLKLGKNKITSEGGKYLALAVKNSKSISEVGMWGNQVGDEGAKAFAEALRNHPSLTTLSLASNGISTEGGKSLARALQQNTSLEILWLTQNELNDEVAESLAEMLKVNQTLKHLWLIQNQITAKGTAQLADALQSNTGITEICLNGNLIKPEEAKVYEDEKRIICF
Put plainly: Induction of human NOD1 activity expressed in HEK293T cells assessed as NFKB activation at 1 to 100 ng/ml by luciferase reporter assay.

The target in assay [2] is T1, Nucleotide-binding oligomerization domain-containing protein 1 (Homo sapiens). As to the kind of experiment: Induction of human NOD1 activity expressed in HEK293T cells assessed as NFKB activation at 0.1 to 1000 ng/ml by luciferase reporter assay. Background: Reporter assays use an easily measured gene product as a stand-in for the process of interest.
For assay [3] the target is unchanged. Put plainly: Induction of human NOD1 activity expressed in HEK293T cells assessed as NFKB activation at 5 mM.

This passage reports Activity results from ChEMBL document CHEMBL1764998, “Structures, synthesis, and human Nod1 stimulation of immunostimulatory bacterial peptidoglycan fragments in the environment” (J Nat Prod, 2011).

The source made the active and inactive calls. The rule behind the calls is not given here.

For the molecule `N[C@H](CCC[C@H](NC(=O)CC[C@@H](N)C(=O)O)C(=O)O)C(=O)O`, the outcome in assay [1] was Active. For `CC(=O)N[C@@H]1[C@@H](OC(C)C(=O)N[C@@H](C)C(=O)N[C@H](CCC(=O)N[C@@H](CCC[C@@H](N)C(=O)O)C(=O)O)C(=O)O)[C@H](O[C@@H]2O[C@H](CO)[C@@H](O)[C@H](O)[C@H]2NC(C)=O)[C@@H](CO)O[C@H]1O` (stereo partly specified), in assay [2], the outcome was Active.

Regarding `CC(=O)N[C@H]1[C@H](O[C@H]2[C@H](OC(C)C(=O)N[C@@H](C)C(=O)N[C@H](CCC(=O)N[C@@H](CCC[C@@H](N)C(=O)O)C(=O)O)C(=O)O)[C@@H](NC(C)=O)[C@@H]3OC[C@H]2O3)O[C@H](CO)[C@@H](O)[C@@H]1O` (stereo partly specified), the result in assay [1] was Active. On to `CC(=O)N[C@@H]1[C@@H](OC(C)C(=O)N[C@@H](C)C(=O)N[C@H](CCC(=O)N[C@@H](CCC[C@@H](N)C(=O)O)C(=O)O)C(=O)O)[C@H](O)[C@@H](CO)O[C@H]1O` (stereo partly specified), for which the outcome in assay [2] and in assay [3] was Active.

On to `C[C@H](N)C(=O)N[C@H](CCC(=O)N[C@@H](CCC[C@@H](N)C(=O)O)C(=O)O)C(=O)O`, for which the outcome in assay [1] was Active.
